Measured values reported in patent US8927771B2, “Pharmaceutically acceptable cocrystals of N-[2-(7-methoxyl-1-naphtyl)ethyl]acetamide and methods of their preparation” (Zentiva k.s., priority 2011, dated 2015).

Columns and labels:
[1] = suspensions in organic solvents (alcohols, ketones, esters, alkanes, aromatic hydrocarbons), 30° C., one week, Raman spectroscopy
Description: Samples of the agomelatine citric acid cocrystal were maturated as suspensions in a library of organic solvents including alcohols, ketones, esters, alkanes and aromatic hydrocarbons at a temperature of 30° C. for one week.

[2] = 90° C. in a glass capillary for 7 hours, X-ray powder diffraction
Description: A sample of the agomelatine citric acid cocrystal was heated to 90° C. in a glass capillary for 7 hours.

[3] = DVS, range of 20-80% RH
Excerpt: A sample of the agomelatine citric acid cocrystal was subjected to DVS analysis ([…] Vapor Sorption). The sample was placed on a microbalance in a controlled humidity chamber and subjected to two cycles of increasing humidity (red and green lines) and two cycles of decreasing humidity (blue and purple lines) as shown in FIG. 4.

[4] = slurried in water, Raman spectra
Description: A sample of the agomelatine citric acid cocrystal was slurried in water and the solid analysed by Raman spectroscopy at 20 minute intervals.

[5] = BCS classification system; cited from earlier work

SMILES	stability of the crystalline phase in suspension [1]	crystalline phase after heating [2]	hygroscopicity [3]	change in mass ([3]; two cycles of increasing and two of decreasing humidity)	state of the solid in water slurry after 20 minutes ([4]; after 20 minutes)	state of the solid in water slurry after 40 minutes ([4]; after 40 minutes)	BCS solubility class [5]
COc1ccc2cccc(CCNC(C)=O)c2c1.O=C(O)CC(O)(CC(=O)O)C(=O)O [agomelatine citric acid cocrystal, N-[2-(7-methoxy-1-naphthyl)ethyl]acetamide Citric Acid Cocrystal]	generally stable	pure crystalline phase consistent with the agomelatine citric acid cocrystal	not particularly hygroscopic	less than 0.2%	near to complete dissolution of the citric acid	no further changes in the spectrum were observed	–
COc1ccc2cccc(CCNC(C)=O)c2c1 [N-[2-(7-Methoxy-1-naphthyl)ethyl]acetamide]	–	–	–	–	–	–	high solubility drug
